Experimental findings from paper PMC8286840, “Identifying SARS-CoV-2 antiviral compounds by screening for small molecule inhibitors of Nsp3 papain-like protease” (Biochemical Journal, 2021) are described below.

Assay [1] has as its target T1, SARS-CoV-2 PLpro (nsp3 1564–1878) (Severe acute respiratory syndrome coronavirus 2, UniProt P0DTD1). Put plainly: biochemical. Conditions: low concentration screen, read-out: % of control remaining. Also on record: FRET-quenched peptide (Pro3) cleavage by PLpro, 10 min pre-incubation, slope over 20 min, normalised to no-compound control.
The target in assay [2] is T1, SARS-CoV-2 PLpro (nsp3 1564–1878). Put plainly: biochemical. The arrangement: FRET-quenched peptide (Pro3) cleavage by PLpro, 10 min pre-incubation, slope over 20 min, normalised to no-compound control. Conditions: high concentration screen, read-out: % of control remaining.

Where a name gives a salt, the structure may show the parent alone. Read-outs that look alike come from different tables or passages of the source.

In the case of `COC(=O)C1=C(C)NC(C)=C(C(=O)OCC(C)C)C1c1ccccc1[N+](=O)[O-]` (centres unmarked) [Nisoldipine], the remaining activity at 1.25 µM in assay [1] (Well no.=1796) was 100%. In addition, the remaining activity at 3.75 µM in assay [2] (Well no.=1796) turned out to be 100%.
For `CC(CC(c1ccccc1)c1ccccc1)NC(C)(C)C` (centres unmarked) [Terodiline hydrochloride], the remaining activity at 1.25 µM in assay [1] (Well no.=5438) turned out to be 94.4%. For the same compound, the remaining activity at 3.75 µM in assay [2] (Well no.=5438) was determined as 99.3%.
`C[Se]CC[C@H](N)C(=O)O` [L-SelenoMethionine]: the remaining activity at 1.25 µM in assay [1] (Well no.=6681) was found to be 106%. The remaining activity at 3.75 µM in assay [2] (Well no.=6681) is 103%.
`CC(C)NC[C@H](O)COc1ccc(CCOCC2CC2)cc1` [Levobetaxolol (hydrochloride)]: the remaining activity at 1.25 µM in assay [1] (Well no.=6429) was found to be 91.4%. Moreover, the remaining activity at 3.75 µM in assay [2] (Well no.=6429) stood at 90.9%.
With `COc1cc2c3cc1Oc1cc(ccc1O)C[C@@H]1c4c(cc(OC)c(O)c4Oc4ccc(cc4)C[C@@H]3N(C)CC2)CC[N+]1(C)C` [(+)-Tubocurarine chloride], the remaining activity at 1.25 µM in assay [1] (Well no.=3471) was found to be 103%. Further, the remaining activity at 3.75 µM in assay [2] (Well no.=3471) came out at 104%.
As for `CCOc1ccccc1OCCN[C@H](C)Cc1ccc(OC)c(S(N)(=O)=O)c1` [Tamsulosin], the results for the remaining activity at 1.25 µM in assay [1] (Well no.=2295) and in assay [1] (Well no.=7386) were 95% and 98.7%, respectively. For the same compound, the remaining activity at 3.75 µM in assay [2] (Well no.=2295) was determined as 95.1%; in assay [2] (Well no.=7386), 94.5%.
On to `CC(C)(C)NCC(O)COc1cccc2[nH]c(=O)[nH]c12` (racemic), for which the remaining activity at 1.25 µM in assay [1] (Well no.=629) came out at 101%. Moreover, the remaining activity at 3.75 µM in assay [2] (Well no.=629) amounted to 101%.
As to `O=[N+]([O-])c1ncc[nH]1` [Azomycin], the remaining activity at 1.25 µM in assay [1] (Well no.=3571) was determined as 109%. The remaining activity at 3.75 µM in assay [2] (Well no.=3571) is 103%.
On to `CC1=C(/C=C/C(C)=C/C=C/C(C)=C/C=C/C=C(C)/C=C/C=C(C)/C=C/C2=C(C)C(=O)CCC2(C)C)C(C)(C)CCC1=O` [Canthaxanthin], for which the remaining activity at 1.25 µM in assay [1] (Well no.=1791) is 105%; in assay [1] (Well no.=4147) it was 93.8%. The results for the remaining activity at 3.75 µM in assay [2] (Well no.=1791) and in assay [2] (Well no.=4147) were 104% and 100%, respectively.
For the compound `O=C(OC1CCN(CCCl)CC1)C(c1ccccc1)c1ccccc1` [4-Diphenylacetoxy-N-(2-chloroethyl)piperidine hydrochloride], the remaining activity at 1.25 µM in assay [1] (Well no.=594) came out at 92.6%. The remaining activity at 3.75 µM in assay [2] (Well no.=594) is 92.6%.
Consider `CNCCCC1c2ccccc2C=Cc2ccccc21` [Protriptyline hydrochloride], for which the remaining activity at 1.25 µM in assay [1] (Well no.=1209) is 108%. For the same compound, the remaining activity at 3.75 µM in assay [2] (Well no.=1209) amounted to 104%.
Regarding `Nc1ncnc2c1ncn2C1CCCO1` (centres unmarked) [SQ22536], the remaining activity at 1.25 µM came to 103% in assay [1] (Well no.=6236) and 92.2% in assay [1] (Well no.=7958). Moreover, the remaining activity at 3.75 µM in assay [2] (Well no.=6236) was 104%; in assay [2] (Well no.=7958), 93.7%.
As for `OC[C@H]1OC(O)[C@@H](O)[C@@H](O)[C@@H]1O` (stereo partly drawn) [D-Mannose], the remaining activity at 1.25 µM in assay [1] (Well no.=7407) amounted to 103%. For the same compound, the remaining activity at 3.75 µM in assay [2] (Well no.=7407) was 102%.
As to `Cc1ccc(OCCSc2ncccn2)c(Br)c1` [2-{[2-(2-bromo-4-methylphenoxy)ethyl]sulfanyl}pyrimidine], the remaining activity at 1.25 µM in assay [1] (Well no.=6035) turned out to be 95.4%. The remaining activity at 3.75 µM in assay [2] (Well no.=6035) came out at 94.6%.
As to `O=C(c1ccc(Nc2nccc(-c3cc4ccccc4s3)n2)cc1)N1CCC(N2CCCC2)CC1` [IKK 16 - N-(4-Pyrrolidin-1-yl-piperidin-1-yl)-[4-(4-benzo[b]thiophen-2-yl-pyrimidin-2-ylamino)phenyl]carboxamide hydrochloride], the remaining activity at 1.25 µM in assay [1] (Well no.=2542) was determined as 100%. The remaining activity at 3.75 µM in assay [2] (Well no.=2542) is 103%.
Regarding `OC(CN1CCN(c2cccc(Cl)c2)CC1)C(c1ccccc1)c1ccccc1` (centres unmarked) [BRL 15572], the remaining activity at 1.25 µM in assay [1] (Well no.=131) came to 95.9%. Further, the remaining activity at 3.75 µM in assay [2] (Well no.=131) was determined as 98.1%.
For `O=C(O)CCCCCC(=O)O` [Pimelic acid], the remaining activity at 1.25 µM in assay [1] (Well no.=7115) worked out at 96.9%. Further, the remaining activity at 3.75 µM in assay [2] (Well no.=7115) stood at 99.2%.
As for `Nc1c(C(=O)O)c2nc3c(C(=O)O)cccc3oc-2cc1=O` [Cinnabarinic Acid], the remaining activity at 1.25 µM in assay [1] (Well no.=5384) was determined as 91.8%. For the same compound, in assay [2] (Well no.=5384), the remaining activity at 3.75 µM was determined as 96.7%.
In the case of `C=CC1=C(C)c2cc3[nH]c(cc4nc(cc5[nH]c(cc1n2)c(C)c5CCC(=O)O)C(CCC(=O)O)=C4C)c(C)c3C=C` [Protoporphyrin IX disodium], the remaining activity at 1.25 µM in assay [1] (Well no.=1207) came to 104%. The remaining activity at 3.75 µM in assay [2] (Well no.=1207) was determined as 102%.
With `C=CCN1CC[C@]23c4c5ccc(O)c4O[C@H]2/C(=N/N=C2\CC[C@@]4(O)[C@H]6Cc7ccc(O)c8c7[C@@]4(CCN6CC=C)[C@H]2O8)CC[C@@]3(O)[C@H]1C5` [Naloxonazine dihydrochloride], in assay [1] (Well no.=894), the remaining activity at 1.25 µM is 105%. Moreover, the remaining activity at 3.75 µM in assay [2] (Well no.=894) stood at 107%.
As to `CCOC(=O)c1c2c3c(cccc3[nH]c1=O)C(=O)c1ccccc1-2` [NQDI-1], the remaining activity at 1.25 µM in assay [1] (Well no.=5480) worked out at 90.1%. Moreover, in assay [2] (Well no.=5480), the remaining activity at 3.75 µM was 96.7%.
On to `C[C@]12CC[C@@H]3c4ccc(O)cc4CC[C@H]3[C@@H]1CC[C@@H]2O` [Estradiol], for which the remaining activity at 1.25 µM stood at 99.3% in assay [1] (Well no.=2034) and 98.6% in assay [1] (Well no.=6449). Besides, the remaining activity at 3.75 µM in assay [2] (Well no.=2034) was determined as 96.6%; in assay [2] (Well no.=6449), 101%.
In the case of `CCC1=C[C@@H]2CN3CCc4c([nH]c5ccccc45)[C@@](C(=O)OC)(C2)[C@@H]13` [Catharanthine], in assay [1] (Well no.=3595), the remaining activity at 1.25 µM turned out to be 104%. Also, the remaining activity at 3.75 µM in assay [2] (Well no.=3595) is 107%.
Take `CC(=O)c1c(C)c2cnc(Nc3ccc(N4CCNCC4)cn3)nc2n(C2CCCC2)c1=O` [PD 0332991 (Palbociclib) Isethionate]: the remaining activity at 1.25 µM in assay [1] (Well no.=4882) was found to be 101%. Also, the remaining activity at 3.75 µM in assay [2] (Well no.=4882) was determined as 101%.
Consider `CCOCc1nc2c(N)nc3ccccc3c2n1CC(C)(C)O` [Resiquimod], for which the results for the remaining activity at 1.25 µM in assay [1] (Well no.=5488) and in assay [1] (Well no.=8499) were 107% and 102%, respectively. Besides, the remaining activity at 3.75 µM in assay [2] (Well no.=5488) came to 107%; in assay [2] (Well no.=8499) it was 106%.
`COc1ccc2c(c1)CC[C@@H]1[C@@H]2CC[C@]2(C)[C@@H](NCCCCCCN3C(=O)C=CC3=O)CC[C@@H]12` [U-73122]: the remaining activity at 1.25 µM in assay [1] (Well no.=1332) was 103%. For the same compound, the remaining activity at 3.75 µM in assay [2] (Well no.=1332) was found to be 105%.
As for `Cc1cc(=O)n(-c2ccccc2)n1C` [Antipyrine], the remaining activity at 1.25 µM in assay [1] (Well no.=5024) was determined as 96.5%. Also, the remaining activity at 3.75 µM in assay [2] (Well no.=5024) came to 100%.
`CN1C(C)(C)CCCC1(C)C` [Pempidine tartrate]: the remaining activity at 1.25 µM in assay [1] (Well no.=1052) was found to be 94%. The remaining activity at 3.75 µM in assay [2] (Well no.=1052) stood at 95%.
Turning to `Fc1cc(F)c2c(c1)C1C=CCC1C(c1cccnc1)N2` (centres unmarked) [6,8-difluoro-4-(3-pyridinyl)-3a,4,5,9b-tetrahydro-3H-cyclopenta[c]quinoline], the remaining activity at 1.25 µM in assay [1] (Well no.=5390) was determined as 97.2%. For the same compound, in assay [2] (Well no.=5390), the remaining activity at 3.75 µM amounted to 91.3%.
